According to patent publication US20170022171A1, “2,5-DISUBSTITUTED CYCLOPENTANECARBOXYLIC ACIDS AND THEIR USE” (Bayer Pharma Aktiengesellschaft, priority 2014, published 2017):

Target: T1, mouse MMP-3 (Mus musculus, UniProt P28862)
T1 construct: purchased R&D Systems 548-MP
Test: In vitro mouse MMP-3 inhibition test
Assay type: biochemical
Excerpt: The MMP-mediated amidolytic cleavage of a suitable peptide substrate leads to an increase in fluorescent light here too. The signal intensity of the fluorescent light is directly proportional to the enzyme activity. The active concentration of a test compound at which half the enzyme is inhibited (50% signal intensity of the fluorescent light) is reported as the IC50 value.
Recombinant mouse MMP-3 (from R&D Systems, 548-MP) is chemically activated in accordance with the manufacturer's instructions using APMA. 1 μl of the test compound to be analysed (as a solution in DMSO, suitable concentrations, for example, 1 nM to 30 μM) is pipetted into 24 μl of activated enzyme (final concentration, for example, 0.5 nM) in reaction buffer (50 mM Tris/HCl pH 7.5, 10 mM CaCl2, 150 mM NaCl, 0.05% Brij®-35) in a white 384-hole microtiter plate (MTP). The enzymatic reaction is started by adding the intramolecularly quenched Mca-Arg-Pro-Lys-Pro-Val-Glu-Nval-Trp-Arg-Lys(Dnp)-NH2 substrate (final concentration, for example, 5 μM; R&D Systems, ES-002), so as to result in a total test volume of 50 μl. The course of the MMP-3 reaction is measured by measuring the fluorescence intensity (excitation 320 nm, emission 410 nm) over a suitable period of time (for example over 120 min at a temperature of 32° C.).

T1 sequence (P28862 100-477): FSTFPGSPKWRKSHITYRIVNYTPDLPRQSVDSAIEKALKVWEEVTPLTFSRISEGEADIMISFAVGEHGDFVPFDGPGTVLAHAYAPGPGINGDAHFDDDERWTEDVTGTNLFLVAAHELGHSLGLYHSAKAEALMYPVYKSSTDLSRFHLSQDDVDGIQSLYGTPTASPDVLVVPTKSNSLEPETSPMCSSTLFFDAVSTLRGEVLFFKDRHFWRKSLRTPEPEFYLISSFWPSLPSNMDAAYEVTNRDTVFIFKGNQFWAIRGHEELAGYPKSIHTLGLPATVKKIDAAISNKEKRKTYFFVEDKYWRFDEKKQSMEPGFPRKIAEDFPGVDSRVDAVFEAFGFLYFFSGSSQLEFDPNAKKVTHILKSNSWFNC

Row | SMILES | IC50
1 | O=C(O)[C@@H]1[C@@H](Cn2nnc3ccc(C(F)(F)F)cc3c2=O)CC[C@H]1C(=O)c1ccc(SCc2ccccc2)cc1 (single isomer, unassigned) [Example 75, (+)-(1RS,2RS,5SR)-2-[4-(Benzylsulphanyl)benzoyl]-5-{[4-oxo-6-(trifluoromethyl)-1,2,3-benzotriazin-3(4H)-yl]methyl}cyclopentanecarboxylic acid] | 5.9 µM
2 | O=C(O)[C@@H]1[C@@H](Cn2nnc3ccc(C(F)(F)F)cc3c2=O)CC[C@H]1C(=O)c1ccc(SCc2ccc(Cl)c(Cl)c2)cc1 (single isomer, unassigned) [Example 80, (+)-(1RS,2RS,5SR)-2-{4-[(3,4-Dichlorobenzyl)sulphanyl]benzoyl}-5-{[4-oxo-6-(trifluoromethyl)-1,2,3-benzotriazin-3(4H)-yl]methyl}cyclopentanecarboxylic acid] | 2.5 µM
3 | O=C(O)[C@H]1[C@H](Cn2nnc3ccccc3c2=O)CC[C@@H]1C(=O)c1ccc(OCCC2CCCCC2)cc1 (racemic) [Example 5, (+/−)-(1RS,2RS,5SR)-2-[4-(2-Cyclohexylethoxy)benzoyl]-5-[(4-oxo-1,2,3-benzotriazin-3(4H)-yl)methyl]cyclopentanecarboxylic acid] | 1.3 µM
4 | CCCCCCOc1ccc(C(=O)[C@@H]2CC[C@H](Cn3nnc4ccc(C)cc4c3=O)[C@H]2C(=O)O)cc1 (single isomer, unassigned) [Example 121, (+)-(1RS,2RS,5SR)-2-[4-(Hexyloxy)benzoyl]-5-[(6-methyl-4-oxo-1,2,3-benzotriazin-3(4H)-yl)methyl]cyclopentanecarboxylic acid] | 2.7 µM

Continued, values first:

Row | IC50 | SMILES
5 | 0.2 µM | Cc1ccc2nnn(C[C@H]3CC[C@@H](C(=O)c4ccc(OCc5ccccc5)cc4)[C@@H]3C(=O)O)c(=O)c2c1 (single isomer, unassigned) [Example 92, (+)-(1RS,2RS,5SR)-2-[4-(Benzyloxy)benzoyl]-5-[(6-methyl-4-oxo-1,2,3-benzotriazin-3(4H)-yl)methyl]cyclopentanecarboxylic acid]
6 | 1.1 µM | Cc1ccc2nnn(C[C@@H]3CC[C@H](C(=O)c4ccc(OCc5cccc(Cl)c5)cc4)[C@H]3C(=O)O)c(=O)c2c1 (racemic) [Example 103, (+/−)-(1RS,2RS,5SR)-2-{4-[(3-Chlorobenzyl)oxy]benzoyl}-5-[(6-methyl-4-oxo-1,2,3-benzotriazin-3(4H)-yl)methyl]cyclopentanecarboxylic acid]
7 | 1.3 µM | Cc1ccc2nnn(C[C@H]3CC[C@@H](C(=O)c4ccc(OCc5cccc(C(F)(F)F)c5)cc4)[C@@H]3C(=O)O)c(=O)c2c1 (single isomer, unassigned) [Example 101, (+)-(1RS,2SR,5RS)-2-[(6-Methyl-4-oxo-1,2,3-benzotriazin-3(4H)-yl)methyl]-5-(4-{[3-(trifluoromethyl)benzyl]oxy}benzoyl)cyclopentanecarboxylic acid]
8 | 0.4 µM | Cc1ccc2nnn(C[C@@H]3CC[C@H](C(=O)c4ccc(OCc5ccccc5)cc4)[C@H]3C(=O)O)c(=O)c2c1 (racemic) [Example 91, (+/−)-(1RS,2RS,5SR)-2-[4-(Benzyloxy)benzoyl]-5-[(6-methyl-4-oxo-1,2,3-benzotriazin-3(4H)-yl)methyl]cyclopentanecarboxylic acid]
9 | 9.5 µM | O=C(O)[C@H]1[C@H](Cn2nnc3ccc(C(F)(F)F)cc3c2=O)CC[C@@H]1C(=O)c1ccc(OCCCc2ccccc2)cc1 (racemic) [Example 39, (+/−)-(1RS,2SR,5RS)-2-{[4-Oxo-6-(trifluoromethyl)-1,2,3-benzotriazin-3(4H)-yl]methyl}-5-[4-(3-phenylpropoxy)benzoyl]cyclopentanecarboxylic acid]
10 | 1.1 µM | Cc1ccc2nnn(C[C@@H]3CC[C@H](C(=O)c4ccc(OCc5cccc(OC(F)(F)F)c5)cc4)[C@H]3C(=O)O)c(=O)c2c1 (racemic) [Example 109, (+/−)-(1RS,2SR,5RS)-2-[(6-Methyl-4-oxo-1,2,3-benzotriazin-3(4H)-yl)methyl]-5-(4-{[3-(trifluoromethoxy)benzyl]oxy}benzoyl)cyclopentanecarboxylic acid]
